Results taken from US8314217B2, “Cross-linked glycopeptide-cephalosporin antibiotics” (priority 2003, dated 2012).
≈ marks a conversion by molar mass, not a printed value.

Legend:
[1] = tested on: methicillin-susceptible Staphylococcus aureus (MSSA 13709) and methicillin-resistant Staphylococcus aureus (MRSA 33591); test: In vivo efficacy in neutropenic mice (thigh infection); parameters: species or system Male CD-1 mice; settings: iv, 24 h, read-out: ED50 (dose required to produce 50% of the maximum reduction in thigh titre)
Experimental: Animals (Male CD-1 mice, 20-30 g) were acquired from Charles Rivers Laboratories (Gilroy, Calif.) and allowed access to food and water ad libitum. Neutropenia was induced via 200 mg/kg intraperitoneal (IP) injection of cyclophosphamide given four and two days prior to the inoculation of bacteria.
The organism used was either a susceptible or resistant strain of clinically relevant Gram-positive pathogens, such as methicillin-susceptible Staphylococcus aureus (MSSA 13709) and methicillin-resistant Staphylococcus aureus (MRSA 33591). The bacterial inoculum concentration was ˜10^6 CFU/mL. Animals were lightly anesthetized with isoflurane and […] of the bacterial inoculum was injected into the anterior thigh. One hour after the inoculation, animals were dosed intravenously with vehicle or the appropriate dose of the test compound. At 0 hours and 24 hours post-treatment, the animals were euthanized (CO2 asphyxiation) and the anterior and posterior thigh collected aseptically. The thigh was placed into 10 mL sterile saline and homogenized. Dilutions of the homogenate were plated onto triptic soy agar plates which were incubated overnight. The number of bacterial colonies on a given plate was multiplied by the dilution factor, divided by the thigh weight (in grams) and expressed as log CFU/g. […]

MRSA 33591 [2] = test: Minimal inhibitory concentration (MIC), broth microdilution; type: cell-based, methicillin-resistant Staphylococcus aureus; settings: Staphylococcus aureus, read-out: MIC MRSA 33591
Experimental: (§1) Minimal inhibitory concentration (MICs) assays were performed using the broth microdilution method set forth in NCCLS guidelines (see, NCCLS. 2000. Methods for Dilution Antimicrobial Susceptibility Tests for Bacteria That Grow Aerobically; Approved Standard—Fifth Ed., Vol. 20, No. 2). Bacterial strains were obtained from the American Type Tissue Culture Collection (ATCC), Stanford University Hospital (SU), Kaiser Permanente Regional Laboratory in Berkeley (KPB), Massachusetts General Hospital (MGH), the Centers for Disease Control (CDC), the San Francisco Veterans' Administration Hospital (SFVA) or the University of California San Francisco Hospital (UCSF). Vancomycin-resistant enterococci were phenotyped as Van A or Van B based on their sensitivity to teicoplanin. Some vancomycin-resistant enterococci that had been genotyped as Van A, Van B, Van C1 or Van C2 were also obtained from the Mayo Clinic.
(§2) In this assay, cryopreserved bacterial cultures of reference and clinical strains were streaked for isolation on appropriate agar medium (i.e., Trypticase Soy Agar, Trypticase Soy Agar with defibrinated sheep erythrocytes, Brain Heart Infusion Agar, Chocolate Agar). Following incubation to allow formation of colonies, these plates were sealed with Parafilm® and stored refrigerated for up to two weeks. […] The MIC was read visually as the lowest concentration well with no bacterial growth. […]

MRSA 33591 [3] = test: Time-kill assay; type: cell-based, methicillin-resistant Staphylococcus aureus; settings: MRSA 33591, in 24 hours
Experimental: This time-kill assay is a method for measuring the rate of bactericidal activity of a test compound. […] A rapid time-kill is desirable to quickly prevent bacterial colonization and reduce host tissue damage.
Bacteria were diluted in prewarmed media in shake flasks and incubated with shaking (200 rpm, 35° C.). At 0, 1, 4, and 24 hours samples were withdrawn from the flasks and bacteria were enumerated by plate counting. Subsequent to the initial sampling, a compound to be assayed was added to the shake flask culture. Plate counts at these intervals previous to and following addition of the compound were expressed graphically in a time-kill curve.

MSSA 13709 = test: Minimal inhibitory concentration (MIC), broth microdilution; type: cell-based, methicillin-susceptible Staphylococcus aureus; settings: Staphylococcus aureus, read-out: MIC MSSA 13709
Experimental: as §1, §2

## CN[C@H](CC(C)C)C(=O)N[C@H]1C(=O)N[C@@H](CC(N)=O)C(=O)N[C@H]2C(=O)N[C@H]3C(=O)N[C@H](C(=O)N[C@H](C(=O)O)c4cc(O)cc(O)c4-c4cc3ccc4O)[C@H](O)c3ccc(c(Cl)c3)Oc3cc2cc(c3O[C@@H]2O[C@H](CO)[C@@H](O)[C@H](O)[C@H]2O[C@H]2C[C@](C)(N)[C@H](O)[C@H](C)O2)Oc2ccc(cc2Cl)[C@H]1O [Vancomycin]
[1]
  ED50: 9 mg/kg
MRSA 33591 [2]
  MIC: 2 µg/mL (≈ 1.38 µM)
MRSA 33591 [3]
  bactericidal concentration (≧3 log decrease in bacterial cell numbers): 4 μg/mL
MSSA 13709
  MIC: 1 µg/mL (≈ 0.69 µM)
